Test results published in patent US10167507B2, “Metabolic diseases-related odorant receptor genes and use thereof” (INDUSTRY-ACADEMIC COOPERATION FOUNDATION, YONSEI UNIVERSITY, priority 2010, dated 2019).
One block for each molecule: values may come before it.

Assays:
[1] = tested on: AKT (v-akt murine thymoma viral oncogene); experiment: Western blotting, protein phosphorylation of AKT; type: in vivo, mouse; settings: for AKT phosphorylation, increase (change rate): odor component-supplemented group to the HFD control group
Procedure: (§6) A certain amount of visceral fat or liver tissues in mortar was homogenized with liquid nitrogen and cell lysis buffer. The mixture was transferred to a new tube, followed by vortexing. After centrifugation at 13,000×g for 20 min at 4° C., the middle layer of the tube was obtained and proteins were quantified by Bradford method. 50 μg of protein was electrophorized to SDS polyacrylamide gel, followed by electroblotting to PVDF hyper film. The protein was reacted using an appropriate antibody for the protein and detected by ECL, whereby insulin resistance, adipocyte differentiation, lipid metabolism or energy consumption-related mechanism of phytochemical components was investigated in the protein level.
(§7) In order to verify this, protein phosphorylations of HSL (hormone sensitive lipase), CREB (cAMP-responsive element binding protein) and AKT (v-akt murine thymoma viral oncogene) were evaluated by western blotting analysis.

[2] = tested on: olfactory receptors in visceral fat and liver tissues; experiment: OligoDNA microarray, visceral fat and liver tissues of HFD mice fed odor components (tissue not separated in text); type: in vivo; settings: supplemented to mouse fed high-fat diet for 10 weeks
Text: (§1) The obesity-inducing control diet used in the test was high-fat diet (HFD: 40% fat calorie, 17 g lard+3% corn oil/100 g diet). Diets supplemented with an odor component had the same composition as HFD, except that each of various types of odor components (indol-3-carbinol, oleuropein, cedryl acetate, α-cedrene and piperine) having anti-obesity efficacy was contained in 0.02-0.05% concentration. Indo)-3-carbinol, oleuropein, cedryl acetate, a-cedrene and piperine were purchased from Sigma-Aldrich.
(§2) After adding Trizol agent to visceral fat or liver tissue, the mixture was homogenized and centrifuged at 12,000×g for 10 min at 4° C. The supernatant was transferred to a new tube to remove fat layer. Then, 200 μl of chloroform was added to the tube, followed by vortexing. The same procedure was repeated twice and then the supernatant was transferred to a new tube, followed by addition of isopropanol and the supernatant at 1:1 ratio. The mixture was vigorously shaken 10 times and then incubated for 10 min at room temperature, followed by centrifugation at 12,000×g for 10 min at 4° C. to remove the supernatant. After adding 1 mL of 70% ethanol to the remaining pellet, it was centrifuged at 7,500×g for 5 min at 4° C. After removing the ethanol, the RNA pellet contained in the tube was dried for 5 min at 4° C. and dissolved in nuclease-free water. The RNA sample concentration was measured at a wavelength of 260 nm and 280 nm using a UV/VIS spectrophotometer (Beckman coulter, DU730) and the integrity of RNA sample was verified by agarose gel electrophoresis.
(§3) DNA microarry analysis using RNAs of visceral fat and liver tissue was conducted by GENOCHECK (CO., LTD.). RNA samples were pooled from 10 mice in each experimental group and subjected to microarray experiments in triplicate for the test of reproducibility. NimbleGen Mouse Whole Oligo 12-plex chip used in this experiment was prepared by triplicating 42,576 genes using Mouse Genome Build 8 as database. In NimbleGen mouse Whole Oligo 12-plex chip, 137,090 spots excluded control group gene were spotted by 16 μm×16 μm size in 17.4 mm×13 mm size. 42,576 oligo included […] genes which are known their functions and 5,431 transcripts and EST sequences which are unknown their functions. 10-50 μg of total RNA was added in oligo-dT primer, reverse transcriptase, dNTP, Cy3-dUTP and Cy5-dUTP, and reverse-transcripted according to the kit manufacturer's recommendations. The resultant was purified using cartridge, dried and dissolved in hybridization buffer solution (30 μL). The microarray was placed in hybridization cassette, heated at 95-100° C. for 5 min, mixed independently to each of RNA labeled with Cy3 and Cy5, and hybridized at 45° C. for 18 hrs. The slide was washed twice in solution containing 1×SSC and 0.1% SDS for 5 min, washed in 1×SSC for 5 min and dried to analyze.
(§4) The profile for olfactory receptors in which the expression was regulated by more than 2-fold change due to intake of odor components at each tissue was shown in Tables 5. As a result, it was determined that various types of odor components having anti-obesity efficacy regulated a plurality of olfactory receptors in peripheral tissues.

[3] = tested on: obesity and metabolic diseases-related genes in visceral fat tissue; experiment: RT-PCR of obesity and metabolic diseases-related genes, visceral fat tissue; type: in vivo, mouse; settings: odor component-supplemented group to the HFD control group
Procedure: (§5) After adding 1 mL of Trizol agent (Invitrogen, USA) per 0.1 g of visceral fat or liver tissues, the mixture was homogenized and centrifuged at 12,000×g for 10 min at 4° C. The supernatant was transferred to a new tube and 200 μl of chloroform was added to the tube, followed by vortexing. The same procedure was repeated twice and then the supernatant was transferred to a new tube, followed by addition of isopropanol and the supernatant at 1:1 ratio. The mixture was vigorously shaken 10 times and then incubated for 10 min at room temperature, followed by centrifugation at 12,000×g for 10 min at 4° C. to remove the supernatant. After adding 1 mL of 70% ethanol to the remaining pellet, it was centrifuged at 7,500×g for 5 min at 4° C. After removing the ethanol, the RNA pellet contained in the tube was dried for 5 min at 4° C. and dissolved in nuclease-free water. The RNA sample concentration was measured at a wavelength of 260 nm and 280 nm using a UV/VIS spectrophotometer (Beckman coulter, DU730) and the integrity of RNA sample was verified by agarose gel electrophoresis. The RNA sample obtained from the visceral fat or liver tissues was trasnscribed using oligo dT primer and reverse transcriptase (GIBCO BRL, Gaithersburg, Md., USA) to synthesize cDNA. The PCR amplification was performed using the cDNA as templates and primers complementary to cDNA [NT] flanking sequence. 1 μl of the amplified products were resolved on agarose gel electrophoresis to verify DNA band.

[4] = tested on: olfactory receptors in liver tissue; experiment: OligoDNA microarray, liver tissue of HFD mice fed odor components; type: in vivo, mouse
Text: as §1, §2, §3, §4

[5] = tested on: CREB (cAMP-responsive element binding protein); experiment: Western blotting, protein phosphorylation of CREB; type: in vivo, mouse; settings: for CREB phosphorylation, increase (change rate): odor component-supplemented group to the HFD control group
Procedure: as §6, §7

[6] = tested on: obesity and metabolic diseases-related genes in liver tissue; experiment: RT-PCR of obesity and metabolic diseases-related genes, liver tissue; type: in vivo, mouse; settings: odor component-supplemented group to the HFD control group
Procedure: as §5

[7] = tested on: olfactory receptors in visceral fat tissue; experiment: OligoDNA microarray, visceral fat tissue of HFD mice fed odor components; type: in vivo, mouse
Procedure: DNA microarry analysis using RNAs of visceral fat and liver tissue was conducted by GENOCHECK (CO., LTD.). RNA samples were pooled from 10 mice in each experimental group and subjected to microarray experiments in triplicate for the test of reproducibility. NimbleGen Mouse Whole Oligo 12-plex chip used in this experiment was prepared by triplicating 42,576 genes using Mouse Genome Build 8 as database. In NimbleGen mouse Whole Oligo 12-plex chip, 137,090 spots excluded control group gene were spotted by 16 μm×16 μm size in 17.4 mm×13 mm size. 42,576 oligo included 137,145 genes which are known their functions and 5,431 transcripts and EST sequences which are unknown their functions. 10-50 μg of total RNA was added in oligo-dT primer, reverse transcriptase, dNTP, Cy3-dUTP and Cy5-dUTP, and reverse-transcripted according to the kit manufacturer's recommendations. The resultant was purified using cartridge, dried and dissolved in hybridization buffer solution (30 μL). The microarray was placed in hybridization cassette, heated at 95-100° C. for 5 min, mixed independently to each of RNA labeled with Cy3 and Cy5, and hybridized at 45° C. for 18 hrs. The slide was washed twice in solution containing 1×SSC and 0.1% SDS for 5 min, washed in 1×SSC for 5 min and dried to analyze.

[8] = tested on: HSL (hormone sensitive lipase); experiment: Western blotting, protein phosphorylation of HSL; type: in vivo, mouse; settings: for HSL phosphorylation, increase (change rate): odor component-supplemented group to the HFD control group
Procedure: as §6, §7

[9] = western blotting, compared to the HFD control group
[10] = supplemented to HFD-fed mouse 10 weeks

expression of olfactory receptor 16 decreased [2]: more than 2 fold change
expression of olfactory receptor 116 increased [2]: more than 2 fold change
expression of olfactory receptor 178 increased [2]: more than 2 fold change
expression of olfactory receptor 196 decreased [2]: more than 2 fold change
expression of olfactory receptor 259 decreased [2]: more than 2 fold change
expression of olfactory receptor 290 increased [2]: more than 2 fold change
expression of olfactory receptor 380 increased [2]: more than 2 fold change
expression of olfactory receptor 466 decreased [2]: more than 2 fold change
expression of olfactory receptor 686 decreased [2]: more than 2 fold change
expression of olfactory receptor 909 increased [2]: more than 2 fold change
expression of olfactory receptor 972 decreased [2]: more than 2 fold change
expression of olfactory receptor 1045 decreased [2]: more than 2 fold change
expression of olfactory receptor 1093 decreased [2]: more than 2 fold change
expression of olfactory receptor 1153 increased [2]: more than 2 fold change
expression of olfactory receptor 1165 decreased [2]: more than 2 fold change
expression of olfactory receptor 1216 decreased [2]: more than 2 fold change
expression of olfactory receptor 1329 decreased [2]: more than 2 fold change
expression of olfactory receptor 1337 decreased [2]: more than 2 fold change
expression of olfactory receptor 1462 increased [2]: more than 2 fold change
expression of olfactory receptor 1045 [4]: decreased
Olfr290 expression fold change to HFD group [4, 10]: 2.11
Olfr1045 expression fold change to HFD group [4, 10]: 0.45
expression of olfactory receptor 380 [7]: increased
expression of olfactory receptor 1165 [7]: decreased
Olfr380 expression fold change to HFD group [7, 10]: 2.2
Olfr1165 expression fold change to HFD group [7, 10]: 0.39
Olfr1462 expression fold change to HFD group [7, 10]: 2.26
Compound: OCc1c[nH]c2ccccc12 [indol-3-carbinol]
AKT phosphorylation, increase (change rate) [1]: 40% increase
phosphorylation of AKT [1, 9]: significantly increased
C/EBPα gene expression, decrease (change rate) [3]: 11% decrease^a)
CPT1 gene expression, increase (change rate) [3]: 25% increase^
FAS gene expression, decrease (change rate) [3]: 56% decrease
IL-6 gene expression, decrease (change rate) [3]: 76% decrease
PGC1α gene expression, increase (change rate) [3]: 120% increase ^
PPARγ2 gene expression, decrease (change rate) [3]: 20% decrease
SIRT1 gene expression, increase (change rate) [3]: 45% increase^
TNFα gene expression, decrease (change rate) [3]: 23% decrease
UCP1 gene expression, increase (change rate) [3]: 210% increase ^
UCP3 gene expression, increase (change rate) [3]: 72% increase^
aP2 gene expression, decrease (change rate) [3]: 44% decrease
CREB phosphorylation, increase (change rate) [5]: 45% increase
phosphorylation of CREB [5, 9]: significantly increased
C/EBPα gene expression, decrease (change rate) [6]: 25% decrease
CPT1 gene expression, increase (change rate) [6]: 33% increase^
FAS gene expression, decrease (change rate) [6]: 27% decrease
IL-6 gene expression, decrease (change rate) [6]: 45% decrease
PPARγ2 gene expression, decrease (change rate) [6]: 36% decrease
TNFα gene expression, decrease (change rate) [6]: 33% decrease
aP2 gene expression, decrease (change rate) [6]: 29% decrease
HSL phosphorylation, increase (change rate) [8]: 31% increase ^a)
phosphorylation of HSL [8, 9]: significantly increased

Compound: O=C(/C=C/C=C/c1ccc2c(c1)OCO2)N1CCCCC1 [piperine]
AKT phosphorylation, increase (change rate) [1]: 47% increase
expression of olfactory receptor 38 increased [2]: more than 2 fold change
expression of olfactory receptor 77 decreased [2]: more than 2 fold change
expression of olfactory receptor 520 increased [2]: more than 2 fold change
expression of olfactory receptor 878 increased [2]: more than 2 fold change
expression of olfactory receptor 1462 decreased [2]: more than 2 fold change
C/EBPα gene expression, decrease (change rate) [3]: 35% decrease
CPT1 gene expression, increase (change rate) [3]: 75% increase^
FAS gene expression, decrease (change rate) [3]: 52% decrease
IL-6 gene expression, decrease (change rate) [3]: 83% decrease
PGC1α gene expression, increase (change rate) [3]: 324% increase ^
PPARγ2 gene expression, decrease (change rate) [3]: 30% decrease
SIRT1 gene expression, increase (change rate) [3]: 36% increase^
TNFα gene expression, decrease (change rate) [3]: 75% decrease
UCP1 gene expression, increase (change rate) [3]: 905% increase ^
UCP3 gene expression, increase (change rate) [3]: 75% increase^
aP2 gene expression, decrease (change rate) [3]: 60% decrease
Olfr38 expression fold change to HFD group [4, 10]: 3.93
Olfr77 expression fold change to HFD group [4, 10]: 0.42
Olfr520 expression fold change to HFD group [4, 10]: 2.24
Olfr878 expression fold change to HFD group [4, 10]: 5.56
Olfr1462 expression fold change to HFD group [4, 10]: 0.49
CREB phosphorylation, increase (change rate) [5]: 29% increase
C/EBPα gene expression, decrease (change rate) [6]: 8% decrease
CPT1 gene expression, increase (change rate) [6]: 44% increase^
FAS gene expression, decrease (change rate) [6]: 67% decrease
IL-6 gene expression, decrease (change rate) [6]: 71% decrease
PPARγ2 gene expression, decrease (change rate) [6]: 44% decrease
TNFα gene expression, decrease (change rate) [6]: 60% decrease
aP2 gene expression, decrease (change rate) [6]: 55% decrease
HSL phosphorylation, increase (change rate) [8]: 45% increase
